The values that follow are results of earlier work, collected in patent US11154491B2, “Use of Undaria extract to reduce signs of skin aging” (Kimberly-Clark Worldwide, Inc., priority 2014, dated 2021).

The test system of this series is 3T3-L1 cells. The conditions noted are these: literature.

For Fucoidan, the adipogenesis result was “inhibit adipogenesis”.
